# Laboratory results: patent publication US8957026B2, “Beta-catenin targeting peptides and uses thereof” (President and Fellows of Harvard College, priority 2010, dated 2015)
# Entries after “also recorded” stand apart in the source; their conditions may differ. Positions of bridges follow the written chain, without caps; N, C: chain ends. Non-standard residues stand in square brackets, D forms with d. Residues, ends and D or L forms follow the SMILES beside them. *: point of attachment. FITC = O=C1OC2(c3ccc(O)cc3Oc3cc(O)ccc32)c2ccc(NC(=S)*)cc21; S5 = C=CCCC[C@](C)(N)C(=O)O; βAla = NCCC(=O)O
# Experiments:
# [1] = Circular dichroism spectra with calculated helicities; format: physicochemical
# From the text: Based on the crystal structure of the Axin/β-catenin complex there are four residues (yellow, FIG. 5a) that are not involved in β-catenin binding[15] and should be suitable for modification without affecting binding. Taking into consideration that only i,i+4 (one helix turn) and i,i+7 5 (two helix turns) positioning of modified residues allows sufficient cross-linking[8] three hydrocarbon stapled sequences (STAX-1, 2 and 3, FIG. 5b) were designed. Circular dichroism spectra of the fluorescently labeled peptides were recorded allowing the calculation of helicities (FIG. 5c). […] Therefore, STAX-3 was chosen as starting point for further optimizations.
# SW480 cells = assay: Cell penetration assay monitoring fluorescence of FITC-labeled peptides; format: cell-based; settings: 10 μM peptide in 10% serum, 24 h, confocal microscope
# Procedure: Besides its affinity to β-catenin it is cell permeability that impacts the capability of a peptide to interfere with the intracellular target. Therefore, the ability to penetrate cells was tested by monitoring fluorescence of the fluorescein(FITC)-labeled peptides.
# [2] = target: T1, N-terminally GST-tagged human β-catenin (Homo sapiens, UniProt P35222); assay: Fluorescence polarization assay with FITC-labeled peptides and GST-tagged β-catenin; format: binding; settings: for increase in binding affinity to β-catenin compared to the wild type sequence (ax-WT): versus Axin wild type peptide
# T1 sequence (P35222 1-781): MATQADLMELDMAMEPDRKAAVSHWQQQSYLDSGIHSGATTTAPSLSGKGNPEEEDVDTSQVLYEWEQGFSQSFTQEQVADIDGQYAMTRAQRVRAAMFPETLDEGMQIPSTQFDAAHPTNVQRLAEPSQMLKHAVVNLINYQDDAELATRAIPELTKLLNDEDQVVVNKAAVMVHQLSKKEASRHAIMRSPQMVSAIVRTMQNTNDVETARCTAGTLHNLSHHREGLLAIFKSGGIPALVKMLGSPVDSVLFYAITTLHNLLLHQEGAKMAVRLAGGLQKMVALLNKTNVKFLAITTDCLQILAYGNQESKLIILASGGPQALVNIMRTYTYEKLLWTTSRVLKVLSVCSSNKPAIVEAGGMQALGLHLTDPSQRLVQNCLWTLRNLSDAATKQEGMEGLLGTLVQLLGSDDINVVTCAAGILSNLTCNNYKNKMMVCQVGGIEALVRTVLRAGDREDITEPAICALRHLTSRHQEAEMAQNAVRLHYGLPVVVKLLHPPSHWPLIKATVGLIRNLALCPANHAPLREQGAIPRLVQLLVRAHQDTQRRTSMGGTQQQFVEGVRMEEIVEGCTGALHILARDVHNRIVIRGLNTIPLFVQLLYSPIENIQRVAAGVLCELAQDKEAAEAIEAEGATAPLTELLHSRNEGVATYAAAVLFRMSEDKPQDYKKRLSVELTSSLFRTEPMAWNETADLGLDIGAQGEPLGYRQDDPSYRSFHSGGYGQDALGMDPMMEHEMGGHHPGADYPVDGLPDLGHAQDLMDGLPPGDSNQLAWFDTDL
# From the text: FIG. 4 depicts (a) superimposed crystal structures of TCF4 (PDB ID: 2GL7)[14] and Axin (PDB ID: 1QZ7)[15] bound to β-catenin; (b) sequences of modified peptides with NCBI accession and covered amino acids (* amino acids 29-37 were replaced by two βAla); (c) fluorescence polarization assays using FITC-labeled peptides and N-terminally GST-tagged human β-catenin (with corresponding Kds).
# FIG. 7 depicts (a) fluorescently labeled peptide sequences resulting from phage display affinity optimization (entries 1, 4 and 17/18 in FIG. 6b); (b) fluorescence polarization assay with fluorescently labeled peptides and N-terminally GST-tagged human β-catenin (with corresponding Kds).
# Peptide sequences derived from TCF4 and Axin were synthesized and fluorescently labeled (FIG. 4b) and the affinity of both binding domains to β-catenin was assessed. […] Therefore, the Axin derivative was considered to be the most promising candidate for the hydrocarbon stapling approach. It combines a relatively short and helical peptide sequence (15 amino acids) with moderate binding of β-catenin (Kd of ˜5 μM).
# [3] = system: Wnt-dependent luciferase reporter; assay: Dual-luciferase Wnt-dependent reporter gene assay; format: cell-based; settings: firefly signal normalized to Renilla luciferase control
# Procedure: FIG. 10 depicts (a) stapled peptide sequences with corresponding Kd to β-catenin (blue boxes mark mutations meant to disrupt binding to (β-catenin, charges at pH 7.5 are calculated values); (b) inhibition of a Wnt-dependent luciferase reporter (dual-luciferase assay: signal was normalized to Renilla luciferase control); (c) dose-dependent effect of STAX-147 and STAX-160 in the dual-luciferase assay.
# The cell penetrating stapled peptides were tested for their effects on transcriptional activity using an established reporter gene assay. In this dual-luciferase assay firefly luciferase is transcriptionally regulated by constitutively activated Wnt signaling. The firefly signal is normalized to the Renilla luciferase control.
helicity ([1]; calculated from circular dichroism spectra of the fluorescently labeled peptide) [%],change of helicity (in words) ([1]; compared to the wild type sequence (ax-WT)),increase in helicity compared to the wild type sequence (ax-WT) ([1]; versus ax-WT) [fold],change of affinity to β-catenin (in words) ([2]; compared to wild type or parent peptide),effect on Wnt-dependent luciferase reporter activity [3],increase in binding affinity to β-catenin upon sequence modification ([2]; versus the preceding stapled peptide of the optimization series),SMILES,cell permeability (SW480 cells),increase in binding affinity to β-catenin compared to the wild type sequence (ax-WT) [2]
51,increased,3.4,increased,,,CC[C@H](C)[C@@H]1NC(=O)[C@@](C)(NC(=O)[C@H](CCC(=O)O)NC(=O)[C@@H]2CCCN2C(=O)[C@H](CC(N)=O)NC(=O)[C@H](CCC(=O)O)NC(=O)CCNC(=S)Nc2ccc3c(c2)C(=O)OC32c3ccc(O)cc3Oc3cc(O)ccc32)CCCC=CCCC[C@@](C)(C(=O)N[C@@H](Cc2c[nH]cn2)C(=O)N[C@H](C(=O)N[C@@H](CCC(N)=O)C(=O)N[C@@H](CCCNC(=N)N)C(=O)N[C@H](C(=O)N[C@@H](CCSC)C(N)=O)C(C)C)C(C)C)NC(=O)[C@H](CC(=O)O)NC(=O)[C@H](CC(C)C)NC1=O [STAX-3] ({FITC-βAla}-ENPE[S5]ILD[S5]HVQRVM-NH2; staple 5-9),non cell permeable,80 fold
,,,,repression of luciferase activity,two fold increase,CC[C@H](C)[C@@H]1NC(=O)[C@@](C)(NC(=O)[C@H](CCC(N)=O)NC(=O)[C@@H]2CCCN2C(=O)[C@H](Cc2c[nH]c3ccccc23)NC(=O)[C@H](CCCNC(=N)N)NC(=O)COCCOCCNC(=S)Nc2ccc3c(c2)C(=O)OC32c3ccc(O)cc3Oc3cc(O)ccc32)CCCC=CCCC[C@@](C)(C(=O)N[C@@H](Cc2c[nH]cn2)C(=O)N[C@H](C(=O)N[C@@H](CCCNC(=N)N)C(=O)N[C@@H](CCCNC(=N)N)C(=O)N[C@H](C(=O)N[C@@H](Cc2c[nH]c3ccccc23)C(=O)N[C@@H](CCCNC(=N)N)C(N)=O)C(C)C)C(C)C)NC(=O)[C@H](CC(=O)O)NC(=O)[C@H](CC(C)C)NC1=O [STAX-090],increased further; also recorded: good permeability,more than 600 fold
,,,,,,CC[C@H](C)[C@H](NC(=O)[C@H](CO)NC(=O)[C@H](CCC(=O)O)NC(=O)[C@@H]1CCCN1C(=O)[C@H](Cc1c[nH]c2ccccc12)NC(=O)[C@H](CCCNC(=N)N)NC(=O)CCNC(=S)Nc1ccc2c(c1)C(=O)OC21c2ccc(O)cc2Oc2cc(O)ccc21)C(=O)N[C@@H](CC(C)C)C(=O)N[C@@H](CC(=O)O)C(=O)N[C@@H](CCC(=O)O)C(=O)N[C@@H](Cc1c[nH]cn1)C(=O)N[C@@H](Cc1c[nH]c2ccccc12)C(=O)N[C@@H](CCC(=O)O)C(=O)N[C@@H](CCCNC(=N)N)C(=O)N[C@H](C(=O)N[C@@H](CCSC)C(=O)N[C@@H](CCCNC(=N)N)C(N)=O)C(C)C [phage-01] ({FITC-βAla}-RWPESILDEHWERVMR-NH2),,39 fold
,,,,,,CC[C@H](C)[C@H](NC(=O)[C@H](CO)NC(=O)[C@H](CCC(=O)O)NC(=O)[C@@H]1CCCN1C(=O)[C@H](CC(N)=O)NC(=O)[C@H](CCC(=O)O)NC(=O)CCNC(=S)Nc1ccc2c(c1)C(=O)OC21c2ccc(O)cc2Oc2cc(O)ccc21)C(=O)N[C@@H](CC(C)C)C(=O)N[C@@H](CC(=O)O)C(=O)N[C@@H](CCC(=O)O)C(=O)N[C@@H](Cc1c[nH]cn1)C(=O)N[C@H](C(=O)N[C@@H](CCC(N)=O)C(=O)N[C@@H](CCCNC(=N)N)C(=O)N[C@H](C(=O)N[C@@H](Cc1c[nH]c2ccccc12)C(=O)N[C@@H](CCCNC(=N)N)C(N)=O)C(C)C)C(C)C [phage-17/18] ({FITC-βAla}-ENPESILDEHVQRVWR-NH2),,8 fold
